# Test results from patent publication US20120029187A1, “HALOALKYLSULFONANILIDE DERIVATIVE” (Nissan Chemical Industries, Ltd., priority 2009, published 2012).
# Key:
# Assay type in all cases: in vivo
# water foxtail [1] = assay: Test Example 4: herbicidal effect in foliage treatment; conditions: dose 6.3 g/a, three weeks after application
# Summary of the method: (§1)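 Seeds sown in sterilized diluvial soil under ~1.5 cm soil cover and grown 14 days in a greenhouse at 25 to 30° C. Emulsifiable concentrates diluted with water were then sprayed uniformly on foliage at predetermined doses (g/a). Herbicidal effect was scored three weeks after application on a graded evaluation scale.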
# velvetleaf [2] = assay: as above; conditions: dose 6.3 g/a, three weeks after application
# Summary of the method: as §1
# beadstraw = assay: as above; conditions: dose 6.3 g/a, three weeks after application
# Summary of the method: as §1
# giant foxtail [3] = assay: as above; conditions: dose 6.3 g/a, three weeks after application
# Summary of the method: as §1
# common ragweed [4] = assay: as above; conditions: dose 6.3 g/a, three weeks after application
# Summary of the method: as §1
# wild oat [5] = assay: as above; conditions: dose 6.3 g/a, three weeks after application
# Summary of the method: as §1
# common chickweed [6] = assay: as above; conditions: dose 6.3 g/a, three weeks after application
# Summary of the method: as §1
# barnyardgrass [7] = assay: as above; conditions: dose 6.3 g/a, three weeks after application
# Summary of the method: as §1
# common lambsquater [8] = assay: as above; conditions: dose 6.3 g/a, three weeks after application
# Summary of the method: as §1
# redroot pigweed = assay: as above; conditions: dose 6.3 g/a, three weeks after application
# Summary of the method: as §1
# large crabgrass [9] = assay: as above; conditions: dose 6.3 g/a, three weeks after application
# Summary of the method: as §1
# Italian ryegrass [10] = assay: as above; conditions: dose 6.3 g/a, three weeks after application
# Summary of the method: as §1
# posumbu knotweed [11] = assay: as above; conditions: dose 6.3 g/a, three weeks after application
# Summary of the method: as §1
# ducksalad = assay: Test Example 1: herbicidal effects in preemergence treatment under submerged conditions; conditions: dose 2.52 g/a
# Summary of the method: (§2)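 Scoring 0 (<5% mortality) to 5 (≥90%) was done three weeks after preemergence application to the water surface of submerged (4 cm) alluvial soil, doses given as g per are. Weeds were seeded and 2.5-leaf rice transplanted on the treatment day; greenhouse at 25–30 °C.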
# bulrush = assay: as above; conditions: dose 2.52 g/a
# Summary of the method: as §2
# barnyardgrass [12] = assay: as above; conditions: dose 2.52 g/a
# Summary of the method: as §2
# water foxtail [13] = assay: Test Example 3: herbicidal effects in soil treatment; conditions: dose 6.3 g/a
# Summary of the method: (§3)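 Seeds were sown in sterilized diluvial soil and covered with about 1.5 cm of soil. Compounds, formulated as emulsifiable concentrates and diluted with water, were sprayed evenly over the soil surface at set doses in g/a. Herbicidal effect was scored on a rating scale three weeks later.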
# velvetleaf [14] = assay: as above; conditions: dose 6.3 g/a
# Summary of the method: as §3
# giant foxtail [15] = assay: as above; conditions: dose 6.3 g/a
# Summary of the method: as §3
# common ragweed [16] = assay: as above; conditions: dose 6.3 g/a
# Summary of the method: as §3
# wild oat [17] = assay: as above; conditions: dose 6.3 g/a
# Summary of the method: as §3
# common chickweed [18] = assay: as above; conditions: dose 6.3 g/a
# Summary of the method: as §3
# barnyardgrass [19] = assay: as above; conditions: dose 6.3 g/a
# Summary of the method: as §3
# common lambsquater [20] = assay: as above; conditions: dose 6.3 g/a
# Summary of the method: as §3
# large crabgrass [21] = assay: as above; conditions: dose 6.3 g/a
# Summary of the method: as §3
# Italian ryegrass [22] = assay: as above; conditions: dose 6.3 g/a
# Summary of the method: as §3
# posumbu knotweed [23] = assay: as above; conditions: dose 6.3 g/a
# Summary of the method: as §3
# barnyardgrass [24] = assay: Comparative Example 2: herbicidal effects on barnyardgrass during the vegetation period under submerged conditions; conditions: applied to water surface at the 2- or 2.5-leaf stage, three weeks after application
# Description: Comparative Example 2 Test on the Herbicidal Effects on Barnyardgrass During the Vegetation Period Under Submerged Conditions Alluvial soil was put in 1/30000-are styrol cups and admixed with water so that it was submerged at a depth of 4 cm. In each cup, seeds of barnyardgrass were sown, and the cups were placed in a greenhouse at 25 to 30° C. to grow the plants. When the barnyardgrass reached the 2- or 2.5-leaf stage, emulsifiable concentrates containing compounds of the present invention and the comparative compounds formulated in accordance with Formulation Example 2 were applied to the water surfaces at predetermined doses after diluted with water. Three weeks after the application, the herbicidal effects were determined on the same evaluation scale as in Test Example 1. The symbol A in the table is the same as defined above.
smiles,measurement,setting,value
CC(C)COC(=O)N(c1ccccc1CN1COCCC1=O)S(=O)(=O)C(F)(F)F [II-3],"G: water foxtail, herbicidal effect",water foxtail [1],5 (mortality of 90% or above (nearly complete death))
same,"I: velvetleaf, herbicidal effect",velvetleaf [2],5 (mortality of 90% or above (nearly complete death))
same,"O: beadstraw, herbicidal effect",beadstraw,3 (mortality of at least 40% and less than 70%)
same,"E: giant foxtail, herbicidal effect",giant foxtail [3],5 (mortality of 90% or above (nearly complete death))
same,"J: common ragweed, herbicidal effect",common ragweed [4],2 (mortality of at least 20% and less than 40%)
same,"F: wild oat, herbicidal effect",wild oat [5],0 (mortality of less than 5% (almost ineffective))
same,"N: common chickweed, herbicidal effect",common chickweed [6],3 (mortality of at least 40% and less than 70%)
same,"A: barnyardgrass, herbicidal effect",barnyardgrass [7],5 (mortality of 90% or above (nearly complete death))
same,"L: common lambsquater, herbicidal effect",common lambsquater [8],4 (mortality of at least 70% and less than 90%)
same,"K: redroot pigweed, herbicidal effect",redroot pigweed,0 (mortality of less than 5% (almost ineffective))
same,"D: large crabgrass, herbicidal effect",large crabgrass [9],5 (mortality of 90% or above (nearly complete death))
same,"H: Italian ryegrass, herbicidal effect",Italian ryegrass [10],3 (mortality of at least 40% and less than 70%)
same,"M: posumbu knotweed, herbicidal effect",posumbu knotweed [11],0 (mortality of less than 5% (almost ineffective))
same,"C: ducksalad, herbicidal effect (evaluation scale 0-5)",ducksalad,5 (mortality of 90% or above (nearly complete death))
same,"B: bulrush, herbicidal effect (evaluation scale 0-5)",bulrush,5 (mortality of 90% or above (nearly complete death))
same,"A: barnyardgrass, herbicidal effect (evaluation scale 0-5)",barnyardgrass [12],5 (mortality of 90% or above (nearly complete death))
same,"G: water foxtail, herbicidal effect (evaluation scale 0-5)",water foxtail [13],5 (mortality of 90% or above (nearly complete death))
same,"I: velvetleaf, herbicidal effect (evaluation scale 0-5)",velvetleaf [14],4 (mortality of at least 70% and less than 90%)
same,"E: giant foxtail, herbicidal effect (evaluation scale 0-5)",giant foxtail [15],3 (mortality of at least 40% and less than 70%)
same,"J: common ragweed, herbicidal effect (evaluation scale 0-5)",common ragweed [16],3 (mortality of at least 40% and less than 70%)
same,"F: wild oat, herbicidal effect (evaluation scale 0-5)",wild oat [17],0 (mortality of less than 5% (almost ineffective))
same,"N: common chickweed, herbicidal effect (evaluation scale 0-5)",common chickweed [18],3 (mortality of at least 40% and less than 70%)
same,"A: barnyardgrass, herbicidal effect (evaluation scale 0-5)",barnyardgrass [19],5 (mortality of 90% or above (nearly complete death))
same,"L: common lambsquater, herbicidal effect (evaluation scale 0-5)",common lambsquater [20],1 (mortality of at least 5% and less than 20%)
same,"D: large crabgrass, herbicidal effect (evaluation scale 0-5)",large crabgrass [21],5 (mortality of 90% or above (nearly complete death))
same,"H: Italian ryegrass, herbicidal effect (evaluation scale 0-5)",Italian ryegrass [22],4 (mortality of at least 70% and less than 90%)
same,"M: posumbu knotweed, herbicidal effect (evaluation scale 0-5)",posumbu knotweed [23],1 (mortality of at least 5% and less than 20%)
same,"herbicidal effect, A (barnyardgrass)",barnyardgrass [24]; dose 0.16 g/a,0 (mortality of less than 5% (almost ineffective))
same,"herbicidal effect, A (barnyardgrass)",barnyardgrass [24]; dose 0.64 g/a,3 (mortality of at least 40% and less than 70%)
same,"herbicidal effect, A (barnyardgrass)",barnyardgrass [24]; dose 2.52 g/a,5 (mortality of 90% or above (nearly complete death))
